Consider nine compounds from US7745462B2, “Quinoline-2-one derivatives for the treatment of airways diseases” (Novartis AG, priority 2003, dated 2010).

Read-outs that look alike come from different tables or passages of the source.

For assay [1], the target named is β2-adrenoreceptor (Homo sapiens, UniProt P07550). Briefly: β2-adrenoreceptor binding potency, classical filtration binding assay.
From the text: (§1) The β2 agonist activity, onset of action and duration of action of the agents of the invention may be tested using the guinea pig tracheal strip in vitro assay according to the procedure of R. A. Coleman and A. T. Nials, J. Pharmacol. Methods 1989, 21, 71.
Assay [2] concerns the target β1-adrenoreceptor (Homo sapiens, UniProt P08588). As to the kind of experiment: β1-adrenoreceptor binding potency, classical filtration binding assay.
From the text: as §1
Where [3] appears, read: read-out: Ki (β2) binding potency, classical filtration binding assay, first value of β2/β1 pair.
Setting [4] is: read-out: Ki (β1) binding potency, classical filtration binding assay, second value of β2/β1 pair.

Sequence of β1-adrenoreceptor (P08588 whole entry, species assumed): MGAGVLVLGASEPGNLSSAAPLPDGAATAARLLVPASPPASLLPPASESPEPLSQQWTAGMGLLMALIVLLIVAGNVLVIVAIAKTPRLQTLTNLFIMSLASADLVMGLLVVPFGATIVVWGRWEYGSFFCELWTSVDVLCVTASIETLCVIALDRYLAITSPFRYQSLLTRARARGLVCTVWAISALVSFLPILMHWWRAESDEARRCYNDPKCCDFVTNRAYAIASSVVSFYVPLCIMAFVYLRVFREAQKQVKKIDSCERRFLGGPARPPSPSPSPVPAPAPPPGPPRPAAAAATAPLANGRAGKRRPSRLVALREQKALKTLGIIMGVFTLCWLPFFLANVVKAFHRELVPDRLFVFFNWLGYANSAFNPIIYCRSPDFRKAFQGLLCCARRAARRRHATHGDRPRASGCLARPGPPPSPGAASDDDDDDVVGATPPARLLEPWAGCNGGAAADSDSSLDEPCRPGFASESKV

One may read the Ki as a measure of affinity in units of concentration, obtained from inhibition or displacement. As to “5-[R-2-(1R,2R-2-Benzylcyclopentylamino)-1-hydroxyethyl]-8-hydroxy-1H-quinolin-2-one [Example 35]”, the Ki in assay [1] (setting [3]) turned out to be 0.4 nM; in assay [2] (setting [4]), 6 nM.
On the same counts, the results for “5-[R-2-((3aS,5R,6aR)-2-Butyloctahydrocyclopenta[c]pyrrol-5-ylamino)-1-hydroxyethyl]-8-hydroxy-1H-quinolin-2-one and 5-[R-2-((3aS,5S,6aR)-2-butyloctahydrocyclopenta[c]pyrrol-5-ylamino)-1-hydroxyethyl]-8-hydroxy-1H-quinolin-2-one [Example 85]” are 121 nM and 380 nM.
Consider `CCCCc1ccc2c(c1)CCC2NC[C@H](O)c1ccc(O)c2[nH]c(=O)ccc12` (mixture of isomers) [Example 3, 5-[R-2-(RS-5-butylindan-1-ylamino)-1-hydroxyethyl]-8-hydroxy-1H-quinolin-2-one], for which the Ki in assay [1] came to 54 nM; in assay [2], 50 nM.
Taken in the same sequence, the figures for `CC1c2ccccc2CC1NCC(O)c1ccc(O)c2[nH]c(=O)ccc12` (mixture of isomers) [Example 4, 8-Hydroxy-5-[R-1-hydroxy-2-(1R,2S-1-methylindan-2-ylamino)ethyl]-1H-quinolin-2-one and 8-hydroxy-5-[R-1-hydroxy-2-(1S,2R-1-methylindan-2-ylamino)ethyl]-1H-quinolin-2-one] were 6 nM and 115 nM.
On the same counts, the results for `O=c1ccc2c(C(O)CNC3CCCC3C3CCCCC3)ccc(O)c2[nH]1` (mixture of isomers) [Example 33, 5-[R-2-(1S,2S-2-Cyclohexylcyclopentylamino)-1-hydroxyethyl]-8-hydroxy-1H-quinolin-2-one and 5-[R-2-(1R,2R-2-cyclohexylcyclopentylamino)-1-hydroxyethyl]-8-hydroxy-1H-quinolin-2-one] are 48 nM and 491 nM.
Consider `O=c1ccc2c([C@@H](O)CN[C@@H]3CCc4ccccc43)ccc(O)c2[nH]1` [Example 1, 8-Hydroxy-5-[R-1-hydroxy-2-(R-indan-1-ylamino)ethyl]-1H-quinolin-2-one], for which the Ki worked out at 26 nM in assay [1] and 186 nM in assay [2].
On the same counts, the results for `CCC1=C(CC)CC2=C(C1)CC(NC[C@H](O)c1ccc(O)c3[nH]c(=O)ccc13)C2` [Example 30, 5-[R-2-(5,6-Diethyl-2,3,4,7-tetrahydro-1H-inden-2-ylamino)-1-hydroxyethyl]-8-hydroxy-1H-quinolin-2-one] are 77 nM and 132 nM.
Taken in the same sequence, the figures for `COCC1(NC[C@H](O)c2ccc(O)c3[nH]c(=O)ccc23)Cc2ccccc2C1` [Example 55, 8-Hydroxy-5-[R-1-hydroxy-2-(2-methoxymethylindan-2-ylamino)-ethyl]-1H-quinolin-2-one] were 128 nM and 384 nM.
Taken in the same sequence, the figures for `O=c1ccc2c([C@@H](O)CN[C@H]3Cc4ccc(-c5ccco5)cc4C3)ccc(O)c2[nH]1` [Example 139, 5-[R-2-(S-5-(Furan-2-yl)indan-2-ylamino)-1-hydroxyethyl]-8-hydroxy-1H-quinohnl-2-one] were 3 nM and 4 nM.
